Assay [1] has as its target T1, CDK4 (Homo sapiens, UniProt P11802).
T1 construct: purchased Invitrogen PR8064A
In words: In vitro kinase inhibition IC50, luminescence (ADP Glo), retinoblastoma substrate. It is filed as biochemical. Conditions: read-out: CDK4/D1 IC50. The method, then: (§1) IC50 values of compounds against CDK4 and CDK6 were determined by luminescence using retinoblastoma as substrate. Kinase assays were performed in kinase buffer (#PV6135, Invitrogen Life Technologies, Grand Island, N.Y.) where total reaction volume was […] in 96-well half area white plates (#3693, Costar). One microliter of 25×test compounds at specific concentrations (e.g., final concentration range: 0.1 nM-200 nM) was mixed with 10 μL of 2.5×kinase (5 nM, CDK4 #PR8064A and CDK6 #PR8422B, Invitrogen) solution and 14 μL of 4× mixed solution with retinoblastoma (1 μM, #12-439, EMD Millipore, Hayward, Calif.) and ATP (25 μM, #V7038, Promega, Madison, Wis.). The plates were covered and incubated for 2H at room temperature. At the end of incubation, 25 μL of stop solution—ADP Glo reagent (#V7002, Promega) was added. After incubation for 45 min at room temperature, 50 μL of detection reagent (##V7002, Promega) was added. Readings were taken at 15 min and 45 min incubation after detection reagent was added in a Synergy Neo Plate reader (BioTek, Winooski, Vt.) at single excitation of 340 nm and Dual emission at 495 nm and 520 nm respectively. The following equations were used in the CDK4 and CDK6 assay data analysis. Percent inhibition (100-% activity) was fitted to the “four-parameter logistic model” in XLfit for determination of IC50 values.
(§2) Percent conversion of enzyme=100−{(RLUNo Drug−No enzyme*100)/RLUNo drug+Enzyme} Equation 1:
(§3) Percent conversion at each data point=100−{(RLUAverage(Drug+enzyme)*100)!RLUNo drug+Enzyme} Equation 2:
(§4) Percent Inhibition=100*(% Conversioneach data point/% ConversionEnzyme) Equation 3: […]
In general terms: ADP-Glo first removes unused ATP, then detects ADP through luciferase.

Assay [2] deals with T2, CDK6 (Homo sapiens, UniProt Q00534).
T2 construct: purchased Invitrogen PR8422B
The description is as above. The settings on record: read-out: CDK6/D1 IC50. It is filed as biochemical. The method, then:
as §1, §2, §3, §4

Assay [3] has as its target T3, FMS kinase (Homo sapiens, UniProt P07333).
T3 construct: purchased Invitrogen (Life Technologies)
Briefly: LanthaScreen Eu Kinase Binding Assay (ATP, fluorescent-PolyGT substrate). It is filed as biochemical. The protocol:
IC50 values of compounds against FMS kinase were determined by LanthaScreen™ Eu Kinase Binding Assay at Invitrogen (Life Technologies Grand Island, N.Y.) where total reaction volume was 10 μL in low-volume 384-well plates (#4511, Corning). Serially diluted compounds (3-fold) were incubated with kinase (1.25 nM) for 10 min, following which a mixture of ATP (10 μM) (#A1852, Sigma, St-Louis, Mo.) and fluorescent-PolyGT substrate (200 nM) (#PV3610, Invitrogen, Life Technologies Grand Island, N.Y.) was added and incubated in dark at room temperature for 1H. After 1H, 10 μL stop solution containing Terbium labeled antibody (4 nM) (#PV3529, Invitrogen, Life Technologies Grand Island, N.Y.) and EDTA (#E5134, Sigma, St-Louis, Mo.) (20 mM) in TR-FRET dilution buffer (#PV3574, Invitrogen, Life Technologies Grand Island, N.Y.) was added. Readings were taken in a Synergy Neo Plate reader (BioTek, Winooski) at single excitation of 340 nm and Dual emission at 495 nm and 520 nm respectively.
The following equations were used for LanthaScreen Eu Kinase Binding Assay Data Analysis. Percent inhibition (100-% activity) was fitted to the “four-parameter logistic model” in XLfit for determination of IC50 values.
In general terms: Time-resolved FRET reads energy transfer from a long-lived donor to a nearby acceptor.

Assay [4] deals with MCF-7 breast adenocarcinoma cells. Briefly: Cancer cell proliferation assay, single agent (cell viability). The settings on record: Homo sapiens, MCF7, Table 4; Rb positive; treatment 144 Hr with medium change at 72 Hr; Cell Titer-Glo or resazurin. Type of assay: cell-based. The method, then:
(§5) The effects of test compounds were studied in three breast cancer cell lines of different subtype. The cancer cells (Table 3) were harvested during the logarithmic growth period and counted. Cell concentrations were adjusted to the appropriate number with respective medium and 90 μL cell suspensions were added to 96-well plates. After cells were seeded, the plates were shaken gently to distribute cells evenly and incubated at 37° C., 5% CO2 on day 1.
(§6) Cells were treated with test compounds at 7 to 9 concentrations within a desired concentration range (e.g. 1.1 nM-10 μM) on day 2 by series diluting the test compound stock solution (10 mM in DMSO) with culture medium. Treatment duration was 24 Hr for BT-549 cells and 144 Hr (with a medium change at 72 Hr) for MCF-7 and DU4475 cells. Cell viability was assessed by Cell Titer-Glo® as recommended by Promega (Cat. No.: G7572), or by resazurin assay (Sigma Aldrich, Cat. No.: R7017) post treatment.
(§7) Cell viability data were plotted using GraphPad Prism (GraphPad Software, Inc., San Diego, Calif.). In addition, a nonlinear regression model with a sigmoidal dose response and variable slope within GraphPad Prism was used to calculate the IC50 value of individual test compounds.
A general note: Cellular ATP, detected with luciferase, serves as a proxy for viable cell number.

Assay [5] relates to DU4475 breast carcinoma cells. The description is as above. Conditions: Homo sapiens, DU-4475; Table 4; Rb negative; treatment 144 Hr with medium change at 72 Hr; Cell Titer-Glo or resazurin. It is filed as cell-based. The method, then:
as §5, §6, §7

T1 sequence (P11802 whole entry): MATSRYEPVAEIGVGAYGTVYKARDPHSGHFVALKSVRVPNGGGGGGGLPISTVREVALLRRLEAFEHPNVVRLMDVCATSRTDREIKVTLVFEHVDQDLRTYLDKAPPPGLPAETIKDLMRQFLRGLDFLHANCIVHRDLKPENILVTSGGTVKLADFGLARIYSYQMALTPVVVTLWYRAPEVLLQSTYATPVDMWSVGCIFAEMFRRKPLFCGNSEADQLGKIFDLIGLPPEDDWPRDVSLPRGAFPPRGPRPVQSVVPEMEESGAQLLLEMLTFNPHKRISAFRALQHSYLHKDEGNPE
T1 sequence (P24385 whole entry partner): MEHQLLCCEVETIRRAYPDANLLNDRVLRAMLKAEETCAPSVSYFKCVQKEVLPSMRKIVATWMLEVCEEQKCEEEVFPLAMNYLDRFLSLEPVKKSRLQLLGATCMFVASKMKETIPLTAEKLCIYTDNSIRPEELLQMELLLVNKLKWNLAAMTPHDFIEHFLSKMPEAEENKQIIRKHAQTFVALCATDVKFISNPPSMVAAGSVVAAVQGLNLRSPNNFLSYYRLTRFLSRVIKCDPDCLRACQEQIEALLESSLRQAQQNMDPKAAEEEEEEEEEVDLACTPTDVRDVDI
T2 sequence (Q00534 whole entry): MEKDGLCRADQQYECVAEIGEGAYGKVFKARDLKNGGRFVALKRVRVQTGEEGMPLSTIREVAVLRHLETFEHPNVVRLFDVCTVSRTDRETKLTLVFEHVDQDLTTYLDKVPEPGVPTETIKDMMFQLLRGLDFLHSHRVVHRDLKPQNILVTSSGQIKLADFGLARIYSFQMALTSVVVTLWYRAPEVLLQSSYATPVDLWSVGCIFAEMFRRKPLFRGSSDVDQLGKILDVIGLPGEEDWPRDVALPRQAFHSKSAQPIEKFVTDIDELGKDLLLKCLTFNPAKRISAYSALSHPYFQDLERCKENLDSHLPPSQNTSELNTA
T2 sequence (P24385 whole entry partner): as the sequence (P24385 whole entry partner) above
T3 sequence (P07333 20-972): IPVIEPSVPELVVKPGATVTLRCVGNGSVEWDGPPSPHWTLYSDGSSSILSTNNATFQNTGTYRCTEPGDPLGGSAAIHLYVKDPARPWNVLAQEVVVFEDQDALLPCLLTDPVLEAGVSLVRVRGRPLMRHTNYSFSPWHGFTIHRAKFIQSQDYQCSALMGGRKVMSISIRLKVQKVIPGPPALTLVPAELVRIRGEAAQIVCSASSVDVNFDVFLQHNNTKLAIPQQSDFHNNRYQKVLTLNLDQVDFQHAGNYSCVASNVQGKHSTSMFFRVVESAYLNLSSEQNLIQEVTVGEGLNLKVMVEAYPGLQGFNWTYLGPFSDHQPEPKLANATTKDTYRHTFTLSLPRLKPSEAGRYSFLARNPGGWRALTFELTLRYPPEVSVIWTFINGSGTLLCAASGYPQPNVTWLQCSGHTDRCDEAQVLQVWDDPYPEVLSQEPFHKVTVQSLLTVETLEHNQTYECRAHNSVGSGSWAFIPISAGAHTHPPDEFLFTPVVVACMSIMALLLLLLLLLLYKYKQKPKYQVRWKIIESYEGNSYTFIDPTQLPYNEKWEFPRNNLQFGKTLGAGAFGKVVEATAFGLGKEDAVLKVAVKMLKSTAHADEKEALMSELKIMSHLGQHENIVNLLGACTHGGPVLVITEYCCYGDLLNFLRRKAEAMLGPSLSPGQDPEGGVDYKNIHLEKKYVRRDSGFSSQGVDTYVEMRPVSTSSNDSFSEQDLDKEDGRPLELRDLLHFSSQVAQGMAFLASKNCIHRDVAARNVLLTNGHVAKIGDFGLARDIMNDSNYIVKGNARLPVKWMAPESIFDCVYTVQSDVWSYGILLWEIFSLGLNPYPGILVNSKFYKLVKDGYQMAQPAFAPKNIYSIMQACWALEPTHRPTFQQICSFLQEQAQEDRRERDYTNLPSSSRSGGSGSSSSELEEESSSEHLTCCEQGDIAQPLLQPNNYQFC

For the compound `CN1CCn2nc(Nc3ncc4cc(C#N)c(=O)n(C5CCCC5)c4n3)cc2C1` [Compound No. 52, 8-cyclopentyl-2-((5-methyl-4,5,6,7-tetrahydropyrazolo[1,5-a]pyrazin-2-yl)amino)-7-oxo-7,8-dihydropyrido[2,3-d]pyrimidine-6-carbonitrile], the IC50 in assay [1] was 39 nM; in assay [2], 13 nM; in assay [3], 6.5 nM; in assay [4] it was 6310 nM.

Consider `N#Cc1cc2cnc(Nc3cc(F)c(N4CCNCC4)c(F)c3)nc2n(C2CCCC2)c1=O` [Compound No. 27, 8-cyclopentyl-2-((3,5-difluoro-4-(piperazin-1-yl)phenyl)amino)-7-oxo-7,8-dihydropyrido[2,3-d]pyrimidine-6-carbonitrile], for which the IC50 is 18 nM in assay [1], 3.5 nM in assay [2], 3.5 nM in assay [3] and 138 nM in assay [4].

With `N#Cc1cc2cnc(Nc3cnn(C4CCC(O)CC4)c3)nc2n(C2CCCC2)c1=O` (stereo not shown) [Compound No. 51, 8-cyclopentyl-2-((1-(4-hydroxycyclohexyl)-1H-pyrazol-4-yl)amino)-7-oxo-7,8-dihydropyrido[2,3-d]pyrimidine-6-carbonitrile], the IC50 in assay [1] stood at 91 nM; in assay [2] it was 42 nM; in assay [3] it was 1 nM; in assay [4] it was 570 nM.

Turning to `N#Cc1cc2cnc(Nc3ccc4c(c3)NC(=O)C4)nc2n(C2CCCC2)c1=O` [Compound No. 19, 8-cyclopentyl-7-oxo-2-((2-oxoindolin-6-yl)amino)-7,8-dihydropyrido[2,3-d]pyrimidine-6-carbonitrile], the IC50 is 35 nM in assay [1], 38 nM in assay [2], under 1 nM in assay [3] and 2360 nM in assay [4].

Turning to `C[C@H]1CC[C@H](n2c(=O)c(C#N)cc3cnc(Nc4ccc5c(c4)C(=O)NCC5)nc32)CC1` [Compound No. 7, 8-((1r,4r)-4-methylcyclohexyl)-7-oxo-2-((1-oxo-1,2,3,4-tetrahydroisoquinolin-7-yl)amino)-7,8-dihydropyrido[2,3-d]pyrimidine-6-carbonitrile], in assay [3], the IC50 turned out to be 8 nM.

As for `CN1CCN(S(=O)(=O)c2cccc(Nc3ncc4cc(C#N)c(=O)n(C5CCCC5)c4n3)c2)CC1` [Compound No. 17, 8-cyclopentyl-2-((3-((4-methylpiperazin-1-yl)sulfonyl)phenyl)amino)-7-oxo-7,8-dihydropyrido[2,3-d]pyrimidine-6-carbonitrile], the IC50 is over 200 nM in assay [1], over 200 nM in assay [2], 53 nM in assay [3] and 3230 nM in assay [4].

For the compound `CN1CCN(C(=O)c2cccc(Nc3ncc4cc(C#N)c(=O)n(C5CCCC5)c4n3)c2)CC1` [Compound No. 16, 8-cyclopentyl-2-((3-(4-methylpiperazine-1-carbonyl)phenyl)amino)-7-oxo-7,8-dihydropyrido[2,3-d]pyrimidine-6-carbonitrile], the IC50 in assay [1] is over 200 nM; in assay [2] it was over 200 nM; in assay [3], 7 nM; in assay [4], 6020 nM.

With `CC1CN(c2ccc(Nc3ncc4cc(C#N)c(=O)n(C5CCCC5)c4n3)nc2)CCN1` (stereo not shown) [Compound No. 23, 8-cyclopentyl-2-((5-(3-methylpiperazin-1-yl)pyridin-2-yl)amino)-7-oxo-7,8-dihydropyrido[2,3-d]pyrimidine-6-carbonitrile], the IC50 was determined as 70.5 nM in assay [1]; 7 nM in assay [2]; 53 nM in assay [3]; 12400 nM in assay [5]; 750 nM in assay [4].

Turning to `CC1CCN(c2ccc(Nc3ncc4cc(C#N)c(=O)n(C5CCCC5)c4n3)cc2)CC1` [Compound No. 25, 8-cyclopentyl-2-((4-(4-methylpiperidin-1-yl)phenyl)amino)-7-oxo-7,8-dihydropyrido[2,3-d]pyrimidine-6-carbonitrile], the IC50 in assay [1] was over 200 nM; in assay [2] it was 38 nM; in assay [3], 13 nM; in assay [4], over 30000 nM.

Consider `CN(C)CCN1CCc2nc(Nc3ncc4cc(C#N)c(=O)n(C5CCCC5)c4n3)ccc2C1` [Compound No. 64, 8-cyclopentyl-2-((6-(2-(dimethylamino)ethyl)-5,6,7,8-tetrahydro-1,6-naphthyridin-2-yl)amino)-7-oxo-7,8-dihydropyrido[2,3-d]pyrimidine-6-carbonitrile], for which the IC50 in assay [1] was over 200 nM; in assay [2] it was 32 nM; in assay [5], 4740 nM; in assay [4], 3590 nM.

With `N#Cc1cc2cnc(Nc3cccc(S(=O)(=O)N4CCOCC4)c3)nc2n(C2CCCC2)c1=O` [Compound No. 20], the IC50 is over 200 nM in assay [1], over 200 nM in assay [2], 99 nM in assay [3] and 1050 nM in assay [4].

With `N#Cc1cc2cnc(Nc3ccc(N4CCNCC4)cc3F)nc2n(C2CCCC2)c1=O` [Compound No. 26, 8-cyclopentyl-2-((2-fluoro-4-(piperazin-1-yl)phenyl)amino)-7-oxo-7,8-dihydropyrido[2,3-d]pyrimidine-6-carbonitrile], the IC50 in assay [1] stood at 42 nM; in assay [2], 6 nM; in assay [3], 6 nM; in assay [4] it was 533 nM.

Consider `N#Cc1cc2cnc(Nc3cccc(S(=O)(=O)N4CCC(O)CC4)c3)nc2n(C2CCCC2)c1=O` [Compound No. 18, 8-cyclopentyl-2-((3-((4-hydroxypiperidin-1-yl)sulfonyl)phenyl)amino)-7-oxo-7,8-dihydropyrido[2,3-d]pyrimidine-6-carbonitrile], for which the IC50 in assay [1] is over 200 nM; in assay [2], over 200 nM; in assay [3], 74 nM; in assay [4] it was 1420 nM.

Take `N#Cc1cc2cnc(Nc3ccc4c(c3)C(=O)NC4)nc2n(C2CCCC2)c1=O` [Compound No. 24, 8-cyclopentyl-7-oxo-2-((3-oxoisoindolin-5-yl)amino)-7,8-dihydropyrido[2,3-d]pyrimidine-6-carbonitrile]: the IC50 in assay [1] is over 200 nM; in assay [2], 35 nM; in assay [3], 5 nM; in assay [4], over 30000 nM.

For the compound `N#Cc1cc2cnc(Nc3ccc4c(c3)CCNC4)nc2n(CC2CC2)c1=O` [Compound No. 85, 8-(cyclopropylmethyl)-7-oxo-2-((1,2,3,4-tetrahydroisoquinolin-6-yl)amino)-7,8-dihydropyrido[2,3-d]pyrimidine-6-carbonitrile], the IC50 in assay [1] is over 200 nM; in assay [2] it was over 190 nM; in assay [5], 725 nM; in assay [4], 723 nM.

Source of the values: patent US20220273659A1, “HETEROCYCLIC COMPOUNDS AS KINASE INHIBITORS” (NUVATION BIO INC., priority 2019, published 2022).
